Reference: patent publication EP0003359A1, “Specific optical isomers of 2-aminoethyl-1,4-benzodioxanes, process for their preparation and their pharmaceutical compositions” (CIBA-GEIGY AG, priority 1978, dated 1979)
Structures can show the parent of a compound that is named as a salt.

Legend:
[1] = tested on: genetisch hypertensive Ratten; test: Blood pressure lowering in hypertensive rats (indirect sphygmomanometry on the tail); assay type: in vivo; conditions: perorale Dosen von 5 mg/kg/Tag und darunter, preferably as hydrochloride
Source text: (§1) Die Verbindungen der Erfindung zeigen wertvolle pharmakologische Eigenschaften, in erster Linie hypotensive, antihypertensive und bradykardische Wirkungen, welche unter anderem durch ihre a- und ß-adrenergischblockierenden, vasodilatorischen und ihre hemmenden Effekte auf das zentrale sympatische Nervensystem zustandekommen. Diese Wirkungen können in Tierversuchen, vorzugsweise an Säugetieren, wie Ratten, Katzen oder Hunden, als Testobjekte nachgewiesen werden. Die Tiere können normotensiv oder hypertensiv, z.B. genetisch hypertensive Ratten sein. Die genannten Verbindungen können ihnen enteral oder parenteral, vorzugsweise oral oder intravenös, z.B. durch Gelatine-Kapseln oder in Form von Stärke enthaltenden Suspensionen bzw. wässerigen Lösungen, verabreicht werden. Die verwendete Dosis kann in einem Bereich von ungefähr zwischen 0,01 und 50 mg/kg/Tag, vorzugsweise ungefähr O,1 und 10 mg/kg/Tag, insbesondere ungefähr 1 und 5 mg/kg/Tag liegen. Die blutdrucksenkende Wirkung wird entweder direkt mit einem Katheter, der z.B. in die femurale Arterie des Hundes eingeführt ist, oder indirekt durch Sphygmomanometrie am Rattenschwanz, und einem Uebertragungsinstrument, welches den Blutdruck vor und nach der Verabreichung des Wirkstoffes in mm Hg angibt, registriert. […]

[2] = tested on: anesthätisierte, bilateral vagotomisierte Bastardhunde; test: Bradycardic effect in anaesthetised, bilaterally vagotomised dogs with heart rate raised by electrical stimulation; assay type: in vivo; conditions: Canis lupus familiaris, intravenous, read-out: intravenöse Dosis, nach der die bradykardischen Wirkungen registriert werden können
Source text: as §1

With C[C@H](CCc1ccccc1)NC[C@H](O)[C@H]1COc2ccccc2O1 [ℓ-erythro-2R-[2-(4-Phenyl-2R-butylamino)-1S-hydroxyäthyl]-1,4-benzodioxan-hydrochlorid] the “blutdrucksenkende Wirkung” value [1] was “sehr wirksam” and the minimal effective dose [2] was 0.03 mg/kg.
